Test results: patent US20110166161A1, “HETEROCYCLIC CARBOXAMIDE COMPOUNDS” (Astellas Pharma Inc., priority 2008, published 2011)
Counter-ions that a name gives are not always drawn.

Assays:
human ROCK I = human ROCK I (Homo sapiens, UniProt Q13464); test: ROCK enzyme inhibition assay; assay type: biochemical
Description: ROCK enzyme inhibitory activity of the compounds of the present invention has been assayed as follow. An aqueous solution of Rho kinase substrate MYTP was added to 96-well plate. Following incubation for overnight at 4° C., the plate was blocked by using blocking buffer containing BSA. To the plate was added reaction buffer containing each concentration of compound, suitable concentration of human ROCK I (Caruna Biosciences), ATP, β-glycerol phosphate, EGTA, sodium orthovanadate and DTT, and then the plate was incubated for 1 hour. After washing the plate by washing buffer, anti-phosphothreonin antibody was added to the plate, and then the plate was incubated for 1 hour. After washing the plate by washing buffer again, HRP-conjugated anti-phosphorylated protein antibody was added to the plate, and then the plate was incubated for 1 hour. After washing the plate by washing buffer again, colorimetric substrate TMB microwell peroxidase substrate was added to the plate, and then the plate was incubated for appropriate time. After incubation, sulfuric acid was added to the plate to stop the reaction, and then absorbance (450 nm) was measured by using spectromether. Based, on the absorbance for each compound, the data is fit using Prism software to obtain a IC50 value.

Male SD rats = test: Changes in hindlimb weight distribution after intra-articular monosodium iodoacetate (MIA) injection; assay type: in vivo; conditions: Rattus norvegicus, 504 h; oral administration; MIA-injected rats, three weeks after injection
Description: As intra-articular injection of monosodium iodoacetate (MIA) induced human osteoarthritis-like histopathological changes in knee joint, this model would be very useful for the study of human osteoarthritis. Recently, it is reported the clinical scores of the joint pain were closely correlated to the grade of histological findings (J Vet Med Sci 65, 1195, 2003) and this model may be useful for estimation of therapeutic effects of pain with osteoarthritis.
Male SD rats were anesthetized with halothane (Takeda, Japan) and given single intra-articular injection of 1 mg of monosodium iodoacetate (MIA; Sigma, St. Louis, USA) through the infrapatellar ligament of the right knee. MIA was dissolved with physiologic saline and administered in a volume of 50 μl using a 27-gauge, 0.5-inch needle. Three weeks after the injection, hindlimb weight distribution was determined using an incapacitance tester (Linton Instrumentation, Norfork, UK). Rats were allowed to acclimate to the testing apparatus and when stationary, readings were taken over a 5 s period. […] Each group in each experiment was performed in about 8 animals.

Male Wistar rats [1] = test: Effects on hindlimb blood flow (laser Doppler); assay type: in vivo; conditions: po; 10 mg/kg p.o.; rat hindlimb; read-out: % of increase of blood flow
Description: As one of the study to clarify the usefulness of the compounds of the present invention for peripheral arterial disease, we conducted a study to evaluate the effects of the compounds on hindlimb blood flow in rats.
Male Wistar rats were anesthetized by intraperitoneal pentobarbital injection (Kanto chemical, Japan) after oral administration of compounds. Rats were placed on a heating plate for subsequent hindlimb blood flow analysis. We measured hindlimb blood flow using a laser Doppler blood flow meter (PeriScan System, Stockholm, Sweden). After the laser Doppler images were recorded, the average perfusion values of both limbs were calculated, and evaluated the effects of compounds on hindlimb blood flow. Each experiment was performed in about 4 animals.

Male Wistar rats [2] = test: Inhibitory effects on phenylephrine-induced elevation of urethral pressure; assay type: in vivo; conditions: Rattus norvegicus, iv; phenylephrine 30 μg/kg i.v.; anesthetized rats; read-out: Inhibition of elevation in urethral pressure ED30
Description: To evaluate the usefulness of the compounds of the present invention for urinary dysfunction associated with benign prostatic hyperplasia, we investigated the inhibitory effects of the intravenous administration of the compounds on phenylephrine-induced elevation of the urethral pressure in rats.
Male Wistar rats were anesthetized with urethane (SIGMA, USA). After midline abdominal incision, catheter to measure the urethral pressure (3.5 Fr, Millar, USA) was inserted into the urethra from top of the bladder. After confirming the Phenylephrine (30 μg/kg i.v.)-induced elevation of the urethral pressure, compounds were administered intravenously in increasing doses. Every 5 min after administration of compounds, Phenylephrine (30 μg/kg i.v.) was injected, and the inhibitory effects of compounds on phenylephrine-induced elevation of urethral pressure were evaluated. Each experiment was performed in about 4 animals.

female C57Bl/6 mice = test: Bleomycin-induced lung fibrosis model, hydroxyproline content of the lung; assay type: in vivo, mouse; conditions: 1 mg/kg orally once a day from day 1 to day 35; lung removed day 36
Description: To induce pulmonary fibrosis, ten mg/kg bleomycin (Nipponkayaku Industries Ltd, Tokyo, Japan) was intraperitoneally injected into female C57Bl/6 mice (9 weeks old, Charles River Laboratories Japan, Inc.) once a day from day 1 to day 10. Bleomycin was dissolved in saline and control mice were intraperitoneally injected with saline. The compound or vehicle was orally administered to the mice once a day from day 1 to day 35. On day 36, mice were sacrificed under anesthesia of pentobarbital and the lung was surgically removed. Hydroxyproline content of the lung was assayed according to the method of Woessner JF (1).

beagle dogs = test: In vivo eye pressure lowering effect (IOP), beagle dogs; conditions: beagle dog, 10 mM applied topically
Description: (§1) The intraocular pressure (IOP) was determined in beagle dogs and rats with tonometer (TONO-PEN™, MENTOR and TonoLab™, M. E. Technica), specially calibrated for the eye of the particular species. In beagle dogs, the cornea was anesthetized with oxibuprocain before each IOP measurement.

rats = test: In vivo eye pressure lowering effect (IOP), rats; conditions: rat, 10 mM applied topically
Description: as §1

human ROCK I, sequence (Q13464 whole entry): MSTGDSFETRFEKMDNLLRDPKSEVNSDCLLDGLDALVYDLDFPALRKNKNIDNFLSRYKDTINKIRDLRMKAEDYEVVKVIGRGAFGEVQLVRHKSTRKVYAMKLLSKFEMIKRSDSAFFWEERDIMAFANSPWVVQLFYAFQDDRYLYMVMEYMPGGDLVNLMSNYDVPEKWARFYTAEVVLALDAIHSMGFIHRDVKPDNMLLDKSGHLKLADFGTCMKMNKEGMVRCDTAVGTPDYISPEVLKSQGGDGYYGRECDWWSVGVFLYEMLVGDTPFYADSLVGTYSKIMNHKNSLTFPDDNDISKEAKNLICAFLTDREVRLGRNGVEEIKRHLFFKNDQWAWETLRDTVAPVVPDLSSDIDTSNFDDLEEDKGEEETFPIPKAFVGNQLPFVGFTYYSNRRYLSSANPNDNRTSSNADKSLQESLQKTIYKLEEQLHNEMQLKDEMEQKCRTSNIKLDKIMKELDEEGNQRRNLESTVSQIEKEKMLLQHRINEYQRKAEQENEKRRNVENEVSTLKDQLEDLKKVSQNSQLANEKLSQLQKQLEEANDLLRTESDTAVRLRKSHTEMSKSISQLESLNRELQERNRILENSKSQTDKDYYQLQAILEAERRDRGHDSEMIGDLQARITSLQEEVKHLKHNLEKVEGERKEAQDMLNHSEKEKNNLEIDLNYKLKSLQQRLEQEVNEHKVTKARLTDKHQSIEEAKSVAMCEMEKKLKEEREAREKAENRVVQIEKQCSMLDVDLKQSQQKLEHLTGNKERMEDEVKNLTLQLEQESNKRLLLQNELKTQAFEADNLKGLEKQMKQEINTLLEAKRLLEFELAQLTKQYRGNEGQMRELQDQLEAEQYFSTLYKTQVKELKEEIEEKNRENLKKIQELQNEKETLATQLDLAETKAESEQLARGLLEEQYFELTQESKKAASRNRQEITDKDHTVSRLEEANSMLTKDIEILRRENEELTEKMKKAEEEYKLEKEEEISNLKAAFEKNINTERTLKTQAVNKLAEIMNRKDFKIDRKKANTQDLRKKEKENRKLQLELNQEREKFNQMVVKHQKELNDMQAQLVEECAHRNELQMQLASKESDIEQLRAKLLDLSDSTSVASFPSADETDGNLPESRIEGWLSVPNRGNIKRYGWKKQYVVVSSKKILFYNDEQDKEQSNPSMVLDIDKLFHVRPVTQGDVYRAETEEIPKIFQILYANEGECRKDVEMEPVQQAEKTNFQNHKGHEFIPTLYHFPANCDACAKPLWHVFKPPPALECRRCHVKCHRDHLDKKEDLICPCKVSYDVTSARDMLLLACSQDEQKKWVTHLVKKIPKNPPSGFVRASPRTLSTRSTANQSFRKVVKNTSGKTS

Row | IC50 (human ROCK I) | Structure (SMILES) | ED50 (Male SD rats) | change in vivo at 10 mg/kg (Male Wistar rats [1]) | ED30 (Male Wistar rats [2]) | reduction of hydroxyproline content of the lung (female C57Bl/6 mice) | IOP change in animals after 4 hours (beagle dogs) | IOP change in animals after 4 hours (rats)
1 | 2 nM | COc1nc(N[C@H]2CC[C@H](N)CC2)c(F)cc1C(N)=O [Example 2, 6-[(trans-4-aminocyclohexyl)amino]-5-fluoro-2-methoxynicotinamide dihydrochloride] | < 1 mg/kg | > 130% | < 0.5 mg/kg | – | – | –
2 | 5 nM | COc1nc(N[C@H]2CC[C@H](N)CC2)c(Cl)cc1C(N)=O [Example 4, 6-[(trans-4-aminocyclohexyl)amino]-5-chloro-2-methoxynicotinamide] | < 1 mg/kg | > 130% | < 0.5 mg/kg | – | – | –
3 | 39 nM | COc1nc(N[C@H]2CC[C@H](N)CC2)c(Br)cc1C(N)=O [Example 5, 6-[(trans-4-aminocyclohexyl)amino]-5-bromo-2-methoxynicotinamide] | < 3 mg/kg | > 130% | < 0.5 mg/kg | – | – | –
4 | 9 nM | CCOc1nc(N[C@H]2CC[C@H](N)CC2)c(F)cc1C(N)=O [Example 7, 6-[(trans-4-aminocyclohexyl)amino]-2-ethoxy-5-fluoronicotinamide dihydrochloride] | – | > 130% | < 0.5 mg/kg | – | – | –
5 | 10 nM | CCOc1nc(N[C@H]2CC[C@H](N)CC2)ccc1C(N)=O [Example 6, 6-[(trans-4-aminocyclohexyl)amino]-2-ethoxynicotinamide dihydrochloride] | – | > 130% | < 0.5 mg/kg | – | – | –
6 | 2 nM | COc1nc(N[C@H]2CC[C@H](N)CC2)ccc1C(N)=O [Example 1, 6-[(trans-4-aminocyclohexyl)amino]-2-methoxynicotinamide dihydrochloride] | < 1 mg/kg | > 130% | < 0.5 mg/kg | – | – | –

Continued, molecule first:

Row | Structure (SMILES) | IC50 (human ROCK I) | ED50 (Male SD rats) | change in vivo at 10 mg/kg (Male Wistar rats [1]) | ED30 (Male Wistar rats [2]) | reduction of hydroxyproline content of the lung (female C57Bl/6 mice) | IOP change in animals after 4 hours (beagle dogs) | IOP change in animals after 4 hours (rats)
7 | COc1nc(N[C@H]2CC[C@H](NC3CCS(=O)(=O)CC3)CC2)c(F)cc1C(N)=O [Example 30, 6-({trans-4-[(1,1-dioxidotetrahydro-2H-thiopyran-4-yl)amino]cyclohexyl}amino)-5-fluoro-2-methoxynicotinamide] | 7 nM | – | > 130% | < 0.5 mg/kg | – | – | –
8 | COc1nc(N[C@H]2CC[C@H](NS(C)(=O)=O)CC2)c(F)cc1C(N)=O [Example 28, 6-[(trans-4-methanesulfonylaminocyclohexyl)amino]-5-fluoro-2-methoxynicotinamide] | 58 nM | – | > 130% | < 0.5 mg/kg | – | – | –
9 | COc1nc(N[C@H]2CC[C@H](N)CC2)c(F)cc1C(N)=O [Example 3, 6-[(trans-4-aminocyclohexyl)amino]-5-fluoro-2-methoxynicotinamide] | – | – | – | – | 66% | −16% reduced in beagle dog | –
10 | CCOc1nc(N[C@H]2CC[C@H](N)CC2)c(I)cc1C(N)=O [Example 10, 6-[(trans-4-aminocyclohexyl)amino]-5-iodo-2-ethoxynicotinamide] | – | – | – | – | – | – | −26% reduced in rat
11 | CCOc1nc(N[C@H]2CC[C@H](N)CC2)c(Br)cc1C(N)=O [Example 9, 6-[(trans-4-aminocyclohexyl)amino]-5-bromo-2-ethoxynicotinamide] | – | – | – | – | – | – | −30% reduced in rat
